Converted amounts (≈) assume the structure as drawn. Bounds are passed on as bounds.

The test system of assay [1] is Fusobacterium necrophorum. The experiment in a line: MIC against anaerobic bacteria, standard agar-dilution assay (Table IX). The format is cell-based. To be noted: 1 strain; Gram-negative anaerobe; 24-hour incubation.
Assay [2] relates to Streptococcus pyogenes. The assay is described as follows: protection of mice experimentally infected with test organism (Table X). The format is in vivo. Conditions: mice, subcutaneous, 1 and 4 hours postinfection.
Assay [3] relates to Fusobacterium symbiosum. The assay is described as follows: MIC against anaerobic bacteria, standard agar-dilution assay (Table IX). To be noted: 1 strain; Gram-negative anaerobe; 24-hour incubation. The format is cell-based.
Assay [4] has as its system Streptococcus faecalis X-66. The experiment in a line: Rat Endocarditis Test, catheter-induced (Table XII). The format is in vivo, rats. Conditions: for % Cured / % With 4 Log Drop: 16 days, 20 mg/kg × 28, subcutaneous at 12-hour intervals for 14 days; for % With 4 Log Drop: % of animals sacrificed; for effect in experimental catheter-induced endocarditis infection, compared with vancomycin: rats. As to the method:
The A82846 antibiotics are also useful in the treatment of endocarditis. […] In this test, rats were prepared by inserting a plastic catheter into the right carotid artery, feeding it down into the […] of the heart and anchoring it securely. The animals were allowed to rest two days, and then the test organism, Streptococcus faecalis X-66, was administered intravenously. The organism titer was approximately 5×10^8 /mL; 0.5 mL was administered.
The compounds were administered subcutaneously 15 minutes prior to infection and at 12-hour intervals for 14 days, a total of 28 treatments. The animals were held 2 days after therapy; then, the hearts were removed, homogenized, diluted and plated on trypticase soy agar. Plates were incubated 48 hours before counting.
^a Catheterinduced endocarditis using Streptococcus faecalis X66
^b Subcutaneous doses at 12hour intervals for 14 days
^c % of animals sacrificed with 4 log drop

For assay [5], the system named is Peptococcus prevoti. The experiment in a line: MIC against anaerobic bacteria, standard agar-dilution assay (Table IX). The format is cell-based. To be noted: 4 strains; Gram-positive anaerobe; 24-hour incubation.
The test system of assay [6] is Propionibacterium acnes. Described as above. The format is cell-based. To be noted: 19 strains; Gram-positive anaerobe; 24-hour incubation.

Usually MIC stands for the smallest concentration in the dilution series that meets the test's criterion for growth inhibition. Low values mean greater potency, high ones weaker potency. For the compound `CN[C@H](CC(C)C)C(=O)N[C@H]1C(=O)N[C@@H](CC(N)=O)C(=O)N[C@H]2C(=O)N[C@H]3C(=O)N[C@H](C(=O)N[C@H](C(=O)O)c4cc(O)cc(O)c4-c4cc3ccc4O)[C@H](O[C@H]3C[C@](C)(N)[C@@H](O)[C@H](C)O3)c3ccc(c(Cl)c3)Oc3cc2cc(c3O[C@@H]2O[C@H](CO)[C@@H](O)[C@H](O)[C@H]2O[C@H]2C[C@](C)(N)[C@@H](O)[C@H](C)O2)Oc2ccc(cc2Cl)[C@H]1O` [A82846B], the minimum inhibitory concentration (MIC) in assay [1] is 128 µg/mL (≈ 80.4 µM); in assay [3] it was 128 µg/mL (≈ 80.4 µM); in assay [5] it was 1 to 4 µg/mL; in assay [6], at most 0.25 µg/mL. Also, in assay [2], the “ED50 Value” was determined as 0.20 mg/kg × 2. The “% Cured” value in assay [4] stood at 100%. Moreover, the “% With 4 Log Drop” value in assay [4] is reported as 100%. Besides, the “effect in experimental catheter-induced endocarditis infection, compared with vancomycin” value in assay [4] was “as effective as vancomycin”.

In the case of `CN[C@H](CC(C)C)C(=O)N[C@H]1C(=O)N[C@@H](CC(N)=O)C(=O)N[C@H]2C(=O)N[C@H]3C(=O)N[C@H](C(=O)N[C@@H](C(=O)O)c4cc(O)cc(O)c4-c4cc3ccc4O)[C@H](O[C@@H]3C[C@@](C)(N)[C@H](O)[C@@H](C)O3)c3ccc(cc3)Oc3cc2cc(c3O[C@H]2O[C@@H](CO)[C@H](O)[C@@H](O)[C@@H]2O[C@H]2C[C@](C)(N)[C@@H](O)[C@H](C)O2)Oc2ccc(cc2Cl)[C@H]1O` [A82846A], the MIC in assay [1] was 128 µg/mL (≈ 82.2 µM); in assay [3], 128 µg/mL (≈ 82.2 µM); in assay [5], 1 to 2 µg/mL; in assay [6] it was at most 0.25 µg/mL. Also, the “ED50 Value” in assay [2] turned out to be 0.19 mg/kg × 2. Also, in assay [4], the “% Cured” value is listed as 100%. The “% With 4 Log Drop” value in assay [4] turned out to be 100%. Moreover, in assay [4], the “effect in experimental catheter-induced endocarditis infection, compared with vancomycin” value is “as effective as vancomycin”.

Values taken from patent US5843437A, “A82846 antibiotics” (Eli Lilly and Company, priority 1995, dated 1998).
